From ChEMBL document CHEMBL1133572, “Protease inhibitors: current status and future prospects” (J Med Chem, 2000)
Counter-ions that a name gives are not always drawn. Residues, ends and D or L forms follow the SMILES beside them. *: point of attachment. Cbz = O=C(OCc1ccccc1)*; CF3 = FC(F)(F)*; Moc = COC(=O)*

Key:
[1] = oral bioavailability in Hamsters; type: ADME, organism-based; details: cricetinae, in vivo, read-out: Bioavailabiility
[2] = The in vivo activity ED50 (iv); type: functional
[3] = The in vivo activity ED50 (oral); type: functional
Neutrophil elastase = Neutrophil elastase (Homo sapiens, UniProt P08246)
[4] = tested on: Human immunodeficiency virus 1; test: Inhibitory activity against indinavir-resistant resistant strain of HIV-1.; type: functional, organism-based
[5] = Orally bioavailability in rats; type: ADME, organism-based; details: rat, in vivo, po; read-out: Bioavailabiility
[6] = tested on: Human immunodeficiency virus 1; test: Inhibitory activity against saquinavir-resistant resistant strain of HIV-1.; type: functional, organism-based
[7] = biological target: Complement C1r subcomponent (Homo sapiens, UniProt P00736); test: Binding affinity against factor C1r.
Coagulation factor X = Coagulation factor X (Homo sapiens, UniProt P00742)
Serine protease 1 = Serine protease 1 (Homo sapiens, UniProt P07477); test: Binding affinity against trypsin.
Plasma kallikrein = Plasma kallikrein (Homo sapiens, UniProt P03952); test: Binding affinity against plasma kallikrein.; type: cell-free
Prothrombin = Prothrombin (Homo sapiens, UniProt P00734); test: Binding affinity against plasma thrombin; type: cell-free
[8] = Inhibitory activity against complement mediated hemoyses in classical pathway.; type: functional
[9] = Inhibitory activity against complement mediated hemoyses in alternate pathway.; type: functional
Kallikrein-1 = Kallikrein-1 (Homo sapiens, UniProt P06870); test: Binding affinity against pancreatic kallikrein.
[10] = Inhibitory concentration against Aspartic proteases.
Cathepsin D [11] = biological target: T1, Cathepsin D (Homo sapiens, UniProt P07339); test: Inhibitory concentration against Human cathepsin D.
[12] = biological target: T2, Disintegrin and metalloproteinase domain-containing protein 17 (Homo sapiens, UniProt P78536); test: Inhibitory activity against Tumor necrosis factor alpha-converting enzyme (TACE) with respect to matrix metalloprotease-1 (MMP-1).
[13] = biological target: T2, Disintegrin and metalloproteinase domain-containing protein 17; test: Inhibition against Tumor necrosis factor alpha-converting enzyme (TACE) at 1 uM in human monocytes.; type: cell-based
[14] = oral bioavailability in standard iv / po dogs; type: ADME, organism-based, Canis lupus familiaris; details: dog, in vivo, read-out: Bioavailabiility
Caspase-1 = biological target: T3, Caspase-1 (Homo sapiens, UniProt P29466); test: The binding affinity against IL-1 beta converting enzyme
T3 sequence (P29466 whole entry): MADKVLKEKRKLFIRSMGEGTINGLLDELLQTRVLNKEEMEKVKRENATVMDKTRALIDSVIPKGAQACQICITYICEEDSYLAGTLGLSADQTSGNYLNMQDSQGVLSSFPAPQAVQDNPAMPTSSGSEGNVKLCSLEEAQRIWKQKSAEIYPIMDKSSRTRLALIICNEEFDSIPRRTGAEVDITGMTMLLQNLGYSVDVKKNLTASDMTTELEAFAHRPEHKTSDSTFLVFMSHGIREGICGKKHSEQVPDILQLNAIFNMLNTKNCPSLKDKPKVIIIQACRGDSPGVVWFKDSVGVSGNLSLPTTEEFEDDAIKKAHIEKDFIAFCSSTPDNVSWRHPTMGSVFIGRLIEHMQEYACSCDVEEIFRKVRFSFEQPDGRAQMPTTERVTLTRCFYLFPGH

[15] = Oral absorption in ferret; type: ADME, organism-based, Mustela putorius furo; details: in vivo, read-out: Absorption
[16] = Oral absorption in rat; type: ADME, organism-based; details: in vivo, read-out: Absorption
[17] = Oral absorption in dog; type: ADME, organism-based, Canis lupus familiaris; details: in vivo, read-out: Absorption
[18] = Oral absorption in monkey; type: ADME; details: simiiformes, in vivo, read-out: Absorption
[19] = Cmax value at the period of 0-24 hr after 125 mg dose.; type: ADME, organism-based; design: dose 125 mg; details: in vivo
[20] = Cmax value at the period of 0-24 hr after 259 mg dose.; type: ADME, organism-based; design: dose 259 mg; details: in vivo
[21] = The effective dose required for 50% inhibition of elastase.; type: functional
Homo sapiens = species: Homo sapiens; test: Half life in humans.; type: ADME, organism-based; details: in vivo
Renin [22] = biological target: T4, Renin (Homo sapiens, UniProt P00797)
T4 sequence (P00797 whole entry): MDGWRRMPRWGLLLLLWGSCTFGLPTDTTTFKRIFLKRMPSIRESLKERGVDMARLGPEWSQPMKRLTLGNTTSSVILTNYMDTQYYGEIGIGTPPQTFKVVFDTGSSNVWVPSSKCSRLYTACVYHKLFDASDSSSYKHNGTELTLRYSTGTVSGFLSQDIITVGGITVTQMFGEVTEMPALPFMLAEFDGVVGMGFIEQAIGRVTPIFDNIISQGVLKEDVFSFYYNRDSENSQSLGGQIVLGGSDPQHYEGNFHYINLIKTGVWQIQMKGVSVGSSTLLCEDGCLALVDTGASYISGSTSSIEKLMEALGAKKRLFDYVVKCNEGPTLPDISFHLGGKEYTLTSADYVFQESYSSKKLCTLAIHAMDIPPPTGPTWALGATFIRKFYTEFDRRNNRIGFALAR

[23] = Oral bioavailability in human; type: ADME, organism-based; details: in vivo
Tryptase [24] = biological target: T5, Tryptase (Homo sapiens, UniProt Q9BZJ3+Q15661+Q9NRR2); test: zinc mediated inhibition in the presence of metal chelating agent EDTA.; type: protein assay
Tryptase [25] = biological target: T5, Tryptase; test: The compound was tested for the zinc mediated inhibition.; type: protein assay
[26] = Oral bioavailability against cynomolgus monkeys at the dose of 3 mg/kg.; type: ADME, organism-based, Macaca fascicularis; details: cynomolgus monkey, in vivo
Renin [27] = biological target: T4, Renin; test: Inhibitory concentration against human plasma renin at pH 6.; type: cell-free
Cathepsin D [28] = biological target: T1, Cathepsin D; test: Inhibitory concentration against cathepsin D..
[29] = biological target: T6, Human rhinovirus A protease (Human rhinovirus sp., UniProt Q4U254)
T6 sequence (Q4U254 whole entry): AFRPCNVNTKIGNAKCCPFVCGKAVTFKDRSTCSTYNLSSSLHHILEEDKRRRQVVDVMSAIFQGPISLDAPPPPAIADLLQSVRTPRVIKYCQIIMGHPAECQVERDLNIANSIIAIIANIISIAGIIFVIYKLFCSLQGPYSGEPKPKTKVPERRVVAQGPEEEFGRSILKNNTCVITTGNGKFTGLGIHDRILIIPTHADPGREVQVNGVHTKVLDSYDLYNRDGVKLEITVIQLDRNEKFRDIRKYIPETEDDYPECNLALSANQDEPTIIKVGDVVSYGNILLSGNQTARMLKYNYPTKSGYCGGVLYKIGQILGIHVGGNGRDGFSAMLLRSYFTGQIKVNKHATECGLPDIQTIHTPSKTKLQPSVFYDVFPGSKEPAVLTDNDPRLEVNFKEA

[30] = biological target: T6, Human rhinovirus A protease; remark: listed apart in the source
[31] = biological target: T7, Human rhinovirus A protease (Human rhinovirus sp.) (UniProt Q4U254); test: The toxic concentration against Protease 3C
T7 sequence (whole entry): T6 sequence (Q4U254 whole entry)

T2 sequence (P78536 whole entry, the tested form may be a part): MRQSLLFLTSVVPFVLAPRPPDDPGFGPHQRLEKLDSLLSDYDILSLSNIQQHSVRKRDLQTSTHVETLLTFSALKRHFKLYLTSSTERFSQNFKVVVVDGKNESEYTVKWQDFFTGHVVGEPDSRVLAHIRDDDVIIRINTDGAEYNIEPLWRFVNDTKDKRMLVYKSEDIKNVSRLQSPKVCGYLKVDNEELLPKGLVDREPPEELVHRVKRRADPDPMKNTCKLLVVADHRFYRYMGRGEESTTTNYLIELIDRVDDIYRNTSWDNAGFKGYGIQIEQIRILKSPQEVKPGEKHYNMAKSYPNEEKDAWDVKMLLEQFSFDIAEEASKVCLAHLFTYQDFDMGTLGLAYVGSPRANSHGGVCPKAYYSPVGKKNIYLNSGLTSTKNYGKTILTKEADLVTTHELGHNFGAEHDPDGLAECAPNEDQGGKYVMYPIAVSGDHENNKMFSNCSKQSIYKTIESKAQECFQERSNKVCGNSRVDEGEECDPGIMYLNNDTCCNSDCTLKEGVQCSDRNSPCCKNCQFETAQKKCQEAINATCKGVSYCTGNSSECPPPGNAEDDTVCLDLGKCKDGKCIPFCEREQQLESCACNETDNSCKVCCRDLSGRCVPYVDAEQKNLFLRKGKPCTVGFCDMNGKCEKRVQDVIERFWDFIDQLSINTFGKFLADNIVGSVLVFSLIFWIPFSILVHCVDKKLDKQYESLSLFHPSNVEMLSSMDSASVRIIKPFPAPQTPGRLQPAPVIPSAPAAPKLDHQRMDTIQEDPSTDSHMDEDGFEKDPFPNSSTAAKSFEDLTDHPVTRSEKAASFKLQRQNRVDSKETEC
T1 sequence (P07339 65-162 limits assumed): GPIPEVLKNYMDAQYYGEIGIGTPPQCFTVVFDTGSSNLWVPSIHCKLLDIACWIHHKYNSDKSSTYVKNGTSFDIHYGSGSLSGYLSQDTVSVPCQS
T1 sequence (P07339 169-412 limits assumed): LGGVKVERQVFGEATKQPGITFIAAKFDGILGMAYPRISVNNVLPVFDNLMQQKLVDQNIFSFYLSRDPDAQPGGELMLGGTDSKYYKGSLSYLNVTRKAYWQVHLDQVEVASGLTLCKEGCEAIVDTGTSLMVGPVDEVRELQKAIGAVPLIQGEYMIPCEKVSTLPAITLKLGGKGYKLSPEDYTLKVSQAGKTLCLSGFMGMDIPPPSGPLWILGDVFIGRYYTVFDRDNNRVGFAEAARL
Sequence of Complement C1r subcomponent (P00736 18-463 limits assumed): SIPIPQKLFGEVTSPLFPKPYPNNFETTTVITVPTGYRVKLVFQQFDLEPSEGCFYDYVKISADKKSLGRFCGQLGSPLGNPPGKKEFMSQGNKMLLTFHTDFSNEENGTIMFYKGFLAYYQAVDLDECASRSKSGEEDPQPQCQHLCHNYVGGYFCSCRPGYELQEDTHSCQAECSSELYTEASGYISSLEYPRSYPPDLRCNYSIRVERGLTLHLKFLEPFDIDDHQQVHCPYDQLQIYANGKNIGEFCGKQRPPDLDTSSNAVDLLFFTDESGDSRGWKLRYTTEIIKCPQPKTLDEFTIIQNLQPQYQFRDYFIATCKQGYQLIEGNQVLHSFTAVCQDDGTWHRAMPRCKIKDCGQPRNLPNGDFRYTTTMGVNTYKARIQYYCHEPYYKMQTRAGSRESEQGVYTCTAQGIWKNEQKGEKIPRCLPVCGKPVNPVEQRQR
Sequence of Complement C1r subcomponent (P00736 464-705 limits assumed): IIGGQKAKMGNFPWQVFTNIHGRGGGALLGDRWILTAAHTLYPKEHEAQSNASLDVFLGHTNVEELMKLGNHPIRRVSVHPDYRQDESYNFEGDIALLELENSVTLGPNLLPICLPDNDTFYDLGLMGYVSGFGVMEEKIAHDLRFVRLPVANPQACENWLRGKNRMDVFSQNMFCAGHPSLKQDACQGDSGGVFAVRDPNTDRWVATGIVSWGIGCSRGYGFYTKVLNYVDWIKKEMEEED
Sequence of Kallikrein-1 (P06870 whole entry): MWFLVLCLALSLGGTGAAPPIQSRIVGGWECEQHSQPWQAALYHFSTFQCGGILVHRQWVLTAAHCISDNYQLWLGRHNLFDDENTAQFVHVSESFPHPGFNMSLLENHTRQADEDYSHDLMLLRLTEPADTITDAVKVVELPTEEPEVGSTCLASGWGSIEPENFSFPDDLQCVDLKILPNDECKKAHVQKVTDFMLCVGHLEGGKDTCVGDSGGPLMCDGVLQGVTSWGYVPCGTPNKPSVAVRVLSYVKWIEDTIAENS
Sequence of Serine protease 1 (P07477 whole entry): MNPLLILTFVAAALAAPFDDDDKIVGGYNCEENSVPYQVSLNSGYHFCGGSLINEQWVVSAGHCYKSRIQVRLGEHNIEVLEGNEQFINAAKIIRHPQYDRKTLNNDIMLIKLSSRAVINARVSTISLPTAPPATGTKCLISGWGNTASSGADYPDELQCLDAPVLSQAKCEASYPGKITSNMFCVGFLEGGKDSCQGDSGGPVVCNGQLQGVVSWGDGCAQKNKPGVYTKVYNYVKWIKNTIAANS
Sequence of Neutrophil elastase (P08246 whole entry): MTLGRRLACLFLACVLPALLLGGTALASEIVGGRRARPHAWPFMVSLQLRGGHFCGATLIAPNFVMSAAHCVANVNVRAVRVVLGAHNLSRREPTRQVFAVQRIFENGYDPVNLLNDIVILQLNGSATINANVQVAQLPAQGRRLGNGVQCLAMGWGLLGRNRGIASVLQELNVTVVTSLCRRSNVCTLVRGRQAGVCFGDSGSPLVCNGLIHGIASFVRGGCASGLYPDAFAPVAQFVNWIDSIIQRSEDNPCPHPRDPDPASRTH
Sequence of Plasma kallikrein (P03952 20-390 limits assumed): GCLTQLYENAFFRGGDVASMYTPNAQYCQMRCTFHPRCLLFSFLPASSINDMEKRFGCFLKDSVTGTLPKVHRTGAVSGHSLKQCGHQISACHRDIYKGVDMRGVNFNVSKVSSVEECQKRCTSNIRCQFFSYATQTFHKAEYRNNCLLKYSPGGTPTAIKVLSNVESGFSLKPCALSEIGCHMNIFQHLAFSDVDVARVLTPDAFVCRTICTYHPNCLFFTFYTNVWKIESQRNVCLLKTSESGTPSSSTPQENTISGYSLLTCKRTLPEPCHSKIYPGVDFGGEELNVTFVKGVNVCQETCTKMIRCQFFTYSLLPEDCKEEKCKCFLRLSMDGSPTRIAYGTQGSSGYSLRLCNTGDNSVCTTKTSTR
Sequence of Plasma kallikrein (P03952 391-638 limits assumed): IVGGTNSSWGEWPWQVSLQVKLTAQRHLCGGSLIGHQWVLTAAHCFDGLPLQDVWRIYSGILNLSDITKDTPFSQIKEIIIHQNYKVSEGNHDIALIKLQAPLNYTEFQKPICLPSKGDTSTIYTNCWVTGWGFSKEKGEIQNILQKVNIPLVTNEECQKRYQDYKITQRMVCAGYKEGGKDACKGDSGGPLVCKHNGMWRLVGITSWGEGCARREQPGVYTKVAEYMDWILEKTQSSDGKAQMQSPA
Sequence of Coagulation factor X (P00742 41-179 limits assumed): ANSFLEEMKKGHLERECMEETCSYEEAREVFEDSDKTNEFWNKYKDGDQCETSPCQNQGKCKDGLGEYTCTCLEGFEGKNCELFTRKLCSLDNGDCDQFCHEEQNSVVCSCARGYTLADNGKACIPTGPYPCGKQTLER
Sequence of Coagulation factor X (P00742 235-488 limits assumed): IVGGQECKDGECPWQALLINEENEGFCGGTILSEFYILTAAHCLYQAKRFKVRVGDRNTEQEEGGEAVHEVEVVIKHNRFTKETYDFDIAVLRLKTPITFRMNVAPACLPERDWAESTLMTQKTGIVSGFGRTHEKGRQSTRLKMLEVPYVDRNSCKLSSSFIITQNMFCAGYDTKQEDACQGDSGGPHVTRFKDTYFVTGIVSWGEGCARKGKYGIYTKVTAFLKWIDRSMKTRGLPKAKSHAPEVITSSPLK

Q: With `COC(=O)N[C@H](C(=O)N1CCC[C@H]1C(=O)N[C@H](C(=O)C(F)(F)F)C(C)C)C(C)C` (Moc-Val-Pro-Val-CF3) as the molecule, how does the bioavailability [1] read?
A: 75%

Q: What about the ED50 [2] of the same molecule?
A: 0.51 mg/kg

Q: What about the ED50 [3] of the same molecule?
A: 2 mg/kg

Q: Which Ki (Neutrophil elastase) does the source give for `CC(SC(=O)c1cccs1)C(=O)NC1CCSC1` (centres undefined) here?
A: 1380 nM

Q: What does the source list for `COC(=O)N[C@H](C(=O)N[C@@H](Cc1ccccc1)[C@@H](O)CN(Cc1ccc(-c2ccccn2)cc1)NC(=O)[C@@H](NC(=O)OC)C(C)(C)C)C(C)(C)C` [ATAZANAVIR]?
A: IC50 [4]: 100 nM; bioavailability [5]: 20%; IC50 [6]: 100 nM

Q: Which results are given for `N=C(N)c1ccc2cc(OC(=O)c3ccc(NC4=NCCN4)cc3)ccc2c1` [SEPIMOSTAT MESYLATE]?
A: Ki [7]: 6400 nM; Ki (Coagulation factor X): 20400 nM; Ki (Serine protease 1): 290 nM; Ki (Plasma kallikrein): 570 nM; Ki (Prothrombin): 2500 nM; IC50 [8]: 170 nM; IC50 [9]: 3500 nM; Ki (Kallikrein-1): 610 nM

Q: Which results are given for `CC(C)C[C@H](NC(=O)[C@H](C)NC(=O)C[C@H](O)[C@H](Cc1ccccc1)NC(=O)[C@@H](NC(=O)c1ccccn1)C(C)C)C(N)=O`?
A: IC50 [10]: 0.56 nM; IC50 (Cathepsin D [11]): 21 nM

Q: For `C#CCSC[C@H](C(=O)NO)[C@@H](CC(C)C)C(=O)N[C@@H](Cc1ccccc1)C(=O)NC`, which IC50 [12] is on record?
A: > 10000 nM

Q: What about the inhibition [13] of the same molecule?
A: 83%

Q: With `O=C[C@H](CC(=O)O)NC(=O)[C@@H]1CCCN2C(=O)CCC(NC(=O)c3ccccc3)C(=O)N12` (some centres undefined) as the molecule, how does the bioavailability [14] read?
A: 17%

Q: And the Ki (Caspase-1)?
A: 5 nM

Q: Which Fa [15] does the source give for `CC(C)C[C@H](O)[C@H](O)[C@H](CC1CCCCC1)NC(=O)[C@H](Cc1cscn1)NC(=O)[C@H](Cc1ccccc1)CS(=O)(=O)N1CCN(C)CC1` [ZANKIREN] here?
A: 32%

Q: And the Fa [16]?
A: 24%

Q: What about the Fa [17] of the same molecule?
A: 53%

Q: And the Fa [18]?
A: 8%

Q: And the Cmax [19]?
A: 430 ng/mL

Q: What about the Cmax [20] of the same molecule?
A: 1150 ng/mL

Q: For `CO[C@H]1C(=O)N2C(C(=O)N3CCC[C@H]3C(=O)O)=C(COC(C)=O)CS(=O)(=O)[C@H]12`, which ED50 [21] is on record?
A: 5 µg animal-1

Q: For `CC1CNc2c(cccc2S(=O)(=O)N[C@@H](CCCNC(=N)N)C(=O)N2CC[C@@H](C)C[C@@H]2C(=O)O)C1` (some centres undefined) [ARGATROBAN], which T1/2 (Homo sapiens) is on record?
A: 40 h

Q: For `CC(C)(C)S(=O)(=O)C[C@@H](Cc1ccccc1)C(=O)N[C@@H](Cc1cnc[nH]1)C(=O)N[C@@H](CC1CCCCC1)[C@@H](O)[C@@H](O)C1CC1`, which Ki (Renin [22]) is on record?
A: 0.7 nM

Q: What about the bioavailability [23] of the same molecule?
A: 0.2%

Q: With `N=C(N)c1ccc2nc(Cc3nc4ccc(C(=N)N)cc4[nH]3)[nH]c2c1.[Zn]` as the molecule, how does the Ki (Tryptase [24]) read?
A: 2500 nM

Q: What about the Ki (Tryptase [25]) of the same molecule?
A: 50 nM

Q: With `CC(C)C[C@H](O)[C@H](O)[C@H](CC1CCCCC1)NC(=O)[C@@H](CC(=O)N(CC(=O)N(C)CCc1ccccn1)CC1CCCCC1)Cc1csc(N)n1` as the molecule, how does the bioavailability [26] read?
A: 40%

Q: What about the IC50 (Renin [27]) of the same molecule?
A: 1.4 nM

Q: And the IC50 (Cathepsin D [28])?
A: 550 nM

Q: Which results are given for `CC(C)C[C@H](NC(=O)OCc1ccccc1)C(=O)N[C@@H](Cc1ccccc1)C(=O)N[C@H](C=O)CC(=O)N(C)C` (Cbz-Leu-Phe-Asp(NMe2)-aldehyde)?
A: EC50 [29]: 1300 nM; Ki [30]: 5 nM; TC50 [31]: 63000 nM
